From US20230212202A1, “TREATMENT OF MGMT DEFICIENT CANCER WITH 2-FLUOROETHYL-SUBSTITUTED NITROSOUREAS AND OTHER COMPOUNDS” (YALE UNIVERSITY, priority 2021, published 2023)

Columns and labels:
[1] = tested on: LN229 MGMT-/MMR+ cells; assay: Genomic DNA denaturing gel electrophoresis; format: cell-based, human
Description: Genomic DNA Denaturing Gel Electrophoresis. Assay was adapted from N. Bossuet-Greif et al., The Colibactin Genotoxin Generates DNA Interstrand Cross-Links in Infected Cells. mBio 9, (2018). Cells were trypsinized, washed with 1X PBS, and stored at -80° C. prior to processing. Genomic DNA was extracted with the DNeasy Blood & Tissue Kit (Qiagen) per kit protocol. A 0.7% agarose gel was prepared in 100 mM NaCl-2mM EDTA (pH 8) and soaked in 40 mM NaOH-1 mM EDTA running buffer for 2 h. Genomic DNA (400 ng/well) was then loaded in 1X BlueJuice loading buffer (Invitrogen) and subjected to electrophoresis at 2 V/cm for 30 min, followed by 3 V/cm for 2 h. The gel was neutralized in 150 mM NaCl-100 mM Tris (pH 7.4) for 30 min, twice, and then stained with 1X SYBR Gold in 150 mM NaCl-100 mM Tris (pH 7.4) for 90 min. Imaging was performed on a ChemiDoc XRS+ Molecular Imager (Bio-Rad).

[2] = tested on: linearized pUC19 plasmid DNA; assay: In vitro DNA cross-linking assay; format: biochemical; conditions: 100 µM, 6-36 hours
Description: Plasmid Linearization Assay. To set up the linearization reactions, 20 units of EcoRI-HF (New England Biolabs) was mixed with 20 µg 2686 bp pUC19 vector DNA in CutSmart buffer (New England Biolabs), pH 7.9, in a total volume of 1000 µL for 30 min at 37° C. The CutSmart buffer contains 50 mM potassium acetate, 20 mM Tris acetate, 10 mM magnesium acetate, and 100 µg/mL BSA. The reacted DNA was then purified using PCR cleanup kit and quantified using the NanoDrop One (Thermo Fisher). The DNA was then stored at -20° C. before use in in vitro DNA cross-linking assays or melting temperature analysis.
In Vitro DNA Cross-linking Assays. Linearized pUC19 DNA, prepared as described above, was used for in vitro DNA cross-linking assays. For each condition, 200 ng of linearized pUC19 DNA (15.4 µM base pairs) was incubated with the indicated concentration of drug in 20 µL. Drug stock concentrations were made in DMSO such that each reaction contained a fixed 5% DMSO concentration. Reactions were conducted in 100 mM Tris buffer (pH 7.4). Cisplatin (Sigma) and DMSO vehicle were used as positive and negative controls, respectively. Reactions were conducted between 3-96 h at 37° C. The DNA was stored at -80° C. until electrophoretic analysis. For gel electrophoresis, DNA concentration was preadjusted to 10 ng/µL. […]

[3] = tested on: WT and XPA-deficient MEFs; assay: Short-term cell viability assay in NER isogenic MEFs; format: cell-based, mouse; conditions: ±MGMT depletion with O6BG
Excerpt: Short-term Cell Viability Assay.

[4] = tested on: LN229 MGMT+/-, MMR+/- cells; assay: Micronuclei analysis; format: cell-based, human; conditions: 20 µM, 48 h
Excerpt: Micronuclei Analysis. An automated image analysis pipeline was developed by YCMD using InCell Analyzer software to quantify micronuclei formation. Nuclei and micronuclei were segmented based on Hoechst nucleic acid dye staining channel. A perinuclear margin was applied around the nuclei to approximate the extent of the cytoplasm and identify micronuclei associated with the parent nucleus. Cells with nuclei associated with at least 1 micronucleus were considered positive.

[5] = tested on: DLD1 BRCA2+/- and BRCA2-/- cells; assay: Short-term viability assay with or without O6BG; format: cell-based, human

`NC(=O)c1ncn2c(=O)n(CCF)nnc12` [KL-50] was tested, and the “crosslinked genomic DNA” value [1] was “presence of crosslinked DNA”, the “ICLs in plasmid DNA” value [2] was “possessed ICLs, with delayed rates of formation relative to 12b” and the “sensitivity of XPA deficient cells” value [3] was “absence of additional sensitivity”. For the same compound, the micronuclei formation [4] was “significant increase in micronuclei”, the “sensitivity of BRCA2-/- cells” value [5] was “BRCA2 loss enhanced the toxicity” and the “therapeutic index (TI), ratio of IC50 values in MGMT+/BRCA2+ cells compared to MGMT-/BRCA2- cells” value ([5]; DLD1 isogenic model) was ~ 600 fold.
